Literature values as cited in patent US20190382321A1, “ACID-RESISTANT UREASE INHIBITOR ADDUCT-[…] COMPOSITIONS” (Koch Agronomic Services, LLC, priority 2017, published 2019).

Settings: blend of NBPT-containing urea and one or more acidic fertilizers

CCCCNP(N)(N)=S [NBPT, N-(n-butyl) thiophosphoric triamide]
time to almost complete decomposition after blending: 1-2 weeks
